Measurements published in patent US7592000B2, “Method of tanning human body by mysting or immersion at elevated temperature” (Merck Patent GmbH, priority 2004, dated 2009).

Tests used:
[1] = over the entire pH range; cited from earlier work
[2] = monomer/dimer equilibrium of DHA dissolved in water; assay type: physicochemical; conditions: DHA solutions at 30-50° C. versus 20° C.
From the text: It is assumed that the effect, advantageous according to the invention, of the improved tanning effect at elevated temperatures in the case of 1,3-dihydroxyacetone is connected with the following mechanism. As a raw material, DHA is in the form of a powder and consists of dimers. Dissolved in water, some of the dimers convert to the active monomeric form, which brings about the tanning reaction. At an elevated water temperature, the amount of monomers increases. […] At the same time, the elevated temperature increases the reaction rate of the tanning reaction. […] It is therefore preferred according to the invention when the solution of the self-tanning substance is tempered for about 15 min, but at least about 10 min, before the solution is applied to the human skin.

more active DHA monomers present than in DHA solutions at 20° C. [2]	Structure (SMILES)	antioxidative activity relative to the investigated structures [1]
	O=c1c(O)c(-c2ccc(O)c(O)c2)oc2cc(O)cc(O)c12 [quercetin, 3,3′,4′,5,7-pentahydroxyflavone]	highest activity of the investigated structures
up to 30%	O=C(CO)CO [DHA, 1,3-dihydroxyacetone]	
